Assays:
Assay in all cases: 33PanQinase panel
Format in all cases: biochemical
[1] = target: T1, S6K-beta (Homo sapiens, UniProt Q9UBS0); settings: read-out: Residual Activity (%)
T1 construct: purchased ProQinase
Protocol: (§1) Figure 5 Dendrogram representation of the selectivity profile of 29d at a concentration of 1 μM in a panel of 320 wild-type kinases (ProQinase, Freiburg, Germany). The residual kinase activity was determined compared to DMSO control. Images were generated using TREEspot Software Tool, DISCOVERX CORPORATION 2010.
(§2) Figure S1. X-ray crystal structure of intermediate compound 25d (ORTEP drawing with ellipsoids at 30% probability). CCDC 1589043 contains the supplementary crystallographic data for this paper. The data can be obtained free of charge from The Cambridge Crystallographic Data Centre via www.ccdc.cam.ac.uk/structures.
(§3) Table S1 Data collection, structure refinement and Ramachrandran plot results of protein crystallization of CK1δ in complex with compound 30a and 30b, respectively.
(§4) Root-mean-square deviations
(§5) Additionally allowed 2.6 2.2
(§6) Table S2. Selectivity profile of compound 29d. The inhibitor has been screened at a concentration of 1 µM over a panel of 320 wild-type protein kinases by ProQinase GmbH (Freiburg, Germany) using an activity-based radiometric 33PanQinase® assay. Results are presented as percentage of residual kinase activity relative to […]
(§7) control. The final DMSO concentration was 1 % in each reaction-mix. Classification of protein kinase families refers to Manning et al. (Manning, G.; Whyte, D. B.; Martinez, R.; Hunter, T.; Sudarsanam, S. The Protein Kinase Complement of the Human Genome. Science 2002, 298, 1912–1934): AGC = containing PKA, PKG, PKC families; […] = containing Cdk, MAPK, GSK3, CLK families; STE = homologs of yeast sterile 7, sterile 11, sterile 20 kinases; TK = tyrosine kinase; TKL = tyrosine kinase-like.
(§8) Kinase name Kinase family Residual Activity (%)

[2] = target: T2, DNA-PK (Homo sapiens, UniProt P78527); settings: read-out: Residual Activity (%)
T2 construct: purchased ProQinase
Protocol: as §1, §2, §3, §4, §5, §6, §7, §8

[3] = target: T3, MAP4K2 (Homo sapiens, UniProt Q12851); settings: MAP4K2, 1 µM; read-out: Residual Activity (%)
T3 construct: purchased ProQinase
Protocol: as §1, §2, §3, §4, §5, §6, §7, §8

[4] = target: T4, PRK1 (Homo sapiens, UniProt Q16512); settings: PRK1, 1 µM; read-out: Residual Activity (%)
T4 construct: purchased ProQinase
T4 sequence (Q16512 whole entry): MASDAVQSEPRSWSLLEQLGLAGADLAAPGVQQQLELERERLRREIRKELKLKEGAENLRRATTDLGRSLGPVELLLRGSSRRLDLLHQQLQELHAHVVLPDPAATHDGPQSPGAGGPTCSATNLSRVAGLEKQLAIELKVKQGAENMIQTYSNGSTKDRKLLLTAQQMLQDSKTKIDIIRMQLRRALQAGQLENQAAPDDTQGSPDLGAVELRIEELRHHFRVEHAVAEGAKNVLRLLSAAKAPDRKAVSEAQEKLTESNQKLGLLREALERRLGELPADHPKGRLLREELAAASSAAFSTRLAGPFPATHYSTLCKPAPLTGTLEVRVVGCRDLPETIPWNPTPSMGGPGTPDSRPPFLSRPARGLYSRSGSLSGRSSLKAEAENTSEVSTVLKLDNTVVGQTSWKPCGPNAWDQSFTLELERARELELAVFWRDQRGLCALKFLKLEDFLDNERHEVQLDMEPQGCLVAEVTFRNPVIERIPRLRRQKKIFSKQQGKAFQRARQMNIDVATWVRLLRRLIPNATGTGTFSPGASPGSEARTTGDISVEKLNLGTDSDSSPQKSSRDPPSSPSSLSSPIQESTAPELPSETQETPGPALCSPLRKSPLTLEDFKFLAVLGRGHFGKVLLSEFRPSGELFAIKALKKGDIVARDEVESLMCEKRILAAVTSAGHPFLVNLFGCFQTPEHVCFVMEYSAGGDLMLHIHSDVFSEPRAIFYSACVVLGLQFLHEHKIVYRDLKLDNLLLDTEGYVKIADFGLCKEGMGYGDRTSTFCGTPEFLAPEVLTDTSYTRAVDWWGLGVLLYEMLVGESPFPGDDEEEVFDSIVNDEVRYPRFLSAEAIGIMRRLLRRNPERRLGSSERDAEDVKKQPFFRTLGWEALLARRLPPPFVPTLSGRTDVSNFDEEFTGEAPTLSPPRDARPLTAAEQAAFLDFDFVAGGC
Protocol: as §1, §2, §3, §4, §5, §6, §7, §8

[5] = target: T5, PKC-beta2 (Homo sapiens, UniProt P05771); settings: PKC-beta2, 1 µM; read-out: Residual Activity (%)
T5 construct: purchased ProQinase
Protocol: as §1, §2, §3, §4, §5, §6, §7, §8

[6] = target: T6, LYN (Homo sapiens, UniProt P07948); settings: read-out: Residual Activity (%)
T6 construct: purchased ProQinase
Protocol: as §1, §2, §3, §4, §5, §6, §7, §8

[7] = target: T7, TTBK1 (Homo sapiens, UniProt Q5TCY1); settings: TTBK1, 1 µM; read-out: Residual Activity (%)
T7 construct: purchased ProQinase
Protocol: as §1, §2, §3, §4, §5, §6, §7, §8

[8] = target: T8, RPS6KA6 (Homo sapiens, UniProt Q9UK32); settings: RPS6KA6, 1 µM; read-out: Residual Activity (%)
T8 construct: purchased ProQinase
T8 sequence (Q9UK32 whole entry): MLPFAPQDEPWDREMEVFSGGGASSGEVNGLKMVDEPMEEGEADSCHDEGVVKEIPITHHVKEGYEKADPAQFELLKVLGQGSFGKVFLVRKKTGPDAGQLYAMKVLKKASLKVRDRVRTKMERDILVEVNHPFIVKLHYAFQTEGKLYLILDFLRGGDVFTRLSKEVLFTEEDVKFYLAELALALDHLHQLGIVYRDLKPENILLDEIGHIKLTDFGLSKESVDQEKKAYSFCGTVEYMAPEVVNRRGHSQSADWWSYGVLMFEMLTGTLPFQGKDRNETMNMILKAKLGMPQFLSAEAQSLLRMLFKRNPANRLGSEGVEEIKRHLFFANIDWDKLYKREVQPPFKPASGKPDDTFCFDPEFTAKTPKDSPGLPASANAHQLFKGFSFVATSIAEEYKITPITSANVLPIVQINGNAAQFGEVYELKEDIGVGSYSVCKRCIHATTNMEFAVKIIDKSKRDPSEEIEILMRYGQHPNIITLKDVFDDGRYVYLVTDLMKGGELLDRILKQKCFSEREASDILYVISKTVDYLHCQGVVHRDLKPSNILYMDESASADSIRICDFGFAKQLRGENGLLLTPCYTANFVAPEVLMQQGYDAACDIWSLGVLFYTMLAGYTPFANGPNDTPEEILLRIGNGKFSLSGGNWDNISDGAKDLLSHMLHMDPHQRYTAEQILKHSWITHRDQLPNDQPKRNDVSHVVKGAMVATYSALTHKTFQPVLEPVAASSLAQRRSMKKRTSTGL
Protocol: as §1, §2, §3, §4, §5, §6, §7, §8

[9] = target: T9, PASK (Homo sapiens, UniProt Q96RG2); settings: read-out: Residual Activity (%)
T9 construct: purchased ProQinase
Protocol: as §1, §2, §3, §4, §5, §6, §7, §8

[10] = target: T10, EPHA8 (Homo sapiens, UniProt P29322); settings: EPHA8, 1 µM; read-out: Residual Activity (%)
T10 construct: purchased ProQinase
T10 sequence (P29322 28-1005): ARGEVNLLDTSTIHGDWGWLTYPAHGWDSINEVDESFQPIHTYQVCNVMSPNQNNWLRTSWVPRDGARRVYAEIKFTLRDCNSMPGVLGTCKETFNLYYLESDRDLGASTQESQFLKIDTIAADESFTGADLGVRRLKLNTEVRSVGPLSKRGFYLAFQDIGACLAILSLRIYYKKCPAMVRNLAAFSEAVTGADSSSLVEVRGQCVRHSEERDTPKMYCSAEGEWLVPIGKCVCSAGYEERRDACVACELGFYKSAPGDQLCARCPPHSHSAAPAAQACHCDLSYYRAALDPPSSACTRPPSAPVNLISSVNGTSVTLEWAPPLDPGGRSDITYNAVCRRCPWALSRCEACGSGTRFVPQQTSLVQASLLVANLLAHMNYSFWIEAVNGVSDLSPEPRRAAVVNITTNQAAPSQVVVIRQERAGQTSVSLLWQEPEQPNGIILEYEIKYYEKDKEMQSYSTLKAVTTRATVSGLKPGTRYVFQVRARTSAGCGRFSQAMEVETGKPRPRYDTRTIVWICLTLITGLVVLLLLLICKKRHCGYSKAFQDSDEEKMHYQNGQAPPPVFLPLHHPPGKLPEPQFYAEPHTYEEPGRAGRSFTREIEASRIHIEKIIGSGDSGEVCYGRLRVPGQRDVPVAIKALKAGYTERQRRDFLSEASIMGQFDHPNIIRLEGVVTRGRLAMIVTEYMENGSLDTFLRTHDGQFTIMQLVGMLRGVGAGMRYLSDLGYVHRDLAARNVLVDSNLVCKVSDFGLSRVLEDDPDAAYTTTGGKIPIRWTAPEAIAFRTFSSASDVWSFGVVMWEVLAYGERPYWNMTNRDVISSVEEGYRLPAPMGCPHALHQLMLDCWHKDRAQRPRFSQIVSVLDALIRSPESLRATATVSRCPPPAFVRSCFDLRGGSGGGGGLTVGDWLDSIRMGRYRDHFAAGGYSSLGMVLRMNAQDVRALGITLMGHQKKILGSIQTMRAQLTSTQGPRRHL
Protocol: as §1, §2, §3, §4, §5, §6, §7, §8

[11] = target: T11, IKK-alpha (Homo sapiens, UniProt O15111); settings: read-out: Residual Activity (%)
T11 construct: purchased ProQinase
T11 sequence (O15111 whole entry): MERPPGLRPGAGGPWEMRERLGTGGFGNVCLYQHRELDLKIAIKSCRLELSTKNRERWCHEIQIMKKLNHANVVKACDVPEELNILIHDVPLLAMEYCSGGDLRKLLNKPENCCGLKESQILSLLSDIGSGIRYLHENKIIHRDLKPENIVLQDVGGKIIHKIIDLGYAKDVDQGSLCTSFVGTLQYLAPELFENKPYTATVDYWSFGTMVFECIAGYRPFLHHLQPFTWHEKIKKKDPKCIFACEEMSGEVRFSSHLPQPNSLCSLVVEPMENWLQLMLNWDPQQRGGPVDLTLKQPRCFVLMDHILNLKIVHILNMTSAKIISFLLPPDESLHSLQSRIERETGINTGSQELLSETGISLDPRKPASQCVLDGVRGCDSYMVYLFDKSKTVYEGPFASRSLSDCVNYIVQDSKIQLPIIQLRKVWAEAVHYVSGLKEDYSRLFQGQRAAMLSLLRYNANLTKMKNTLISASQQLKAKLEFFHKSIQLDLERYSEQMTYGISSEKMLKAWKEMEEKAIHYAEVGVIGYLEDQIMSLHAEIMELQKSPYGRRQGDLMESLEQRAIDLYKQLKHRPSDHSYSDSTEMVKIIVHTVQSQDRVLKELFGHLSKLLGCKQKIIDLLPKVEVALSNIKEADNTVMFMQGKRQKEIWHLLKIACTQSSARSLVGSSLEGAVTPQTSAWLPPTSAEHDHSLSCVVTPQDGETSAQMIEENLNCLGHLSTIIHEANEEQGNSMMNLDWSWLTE
Protocol: as §1, §2, §3, §4, §5, §6, §7, §8

[12] = target: T12, NEK9 (Homo sapiens, UniProt Q8TD19); settings: NEK9, 1 µM; read-out: Residual Activity (%)
T12 construct: purchased ProQinase
Protocol: as §1, §2, §3, §4, §5, §6, §7, §8

[13] = target: T13, WNK1 (Homo sapiens, UniProt Q9H4A3); settings: WNK1, 1 µM; read-out: Residual Activity (%)
T13 construct: purchased ProQinase
Protocol: as §1, §2, §3, §4, §5, §6, §7, §8

[14] = target: T14, TAOK2 (Homo sapiens, UniProt Q9UL54); settings: TAOK2, 1 µM; read-out: Residual Activity (%)
T14 construct: purchased ProQinase
T14 sequence (Q9UL54 whole entry): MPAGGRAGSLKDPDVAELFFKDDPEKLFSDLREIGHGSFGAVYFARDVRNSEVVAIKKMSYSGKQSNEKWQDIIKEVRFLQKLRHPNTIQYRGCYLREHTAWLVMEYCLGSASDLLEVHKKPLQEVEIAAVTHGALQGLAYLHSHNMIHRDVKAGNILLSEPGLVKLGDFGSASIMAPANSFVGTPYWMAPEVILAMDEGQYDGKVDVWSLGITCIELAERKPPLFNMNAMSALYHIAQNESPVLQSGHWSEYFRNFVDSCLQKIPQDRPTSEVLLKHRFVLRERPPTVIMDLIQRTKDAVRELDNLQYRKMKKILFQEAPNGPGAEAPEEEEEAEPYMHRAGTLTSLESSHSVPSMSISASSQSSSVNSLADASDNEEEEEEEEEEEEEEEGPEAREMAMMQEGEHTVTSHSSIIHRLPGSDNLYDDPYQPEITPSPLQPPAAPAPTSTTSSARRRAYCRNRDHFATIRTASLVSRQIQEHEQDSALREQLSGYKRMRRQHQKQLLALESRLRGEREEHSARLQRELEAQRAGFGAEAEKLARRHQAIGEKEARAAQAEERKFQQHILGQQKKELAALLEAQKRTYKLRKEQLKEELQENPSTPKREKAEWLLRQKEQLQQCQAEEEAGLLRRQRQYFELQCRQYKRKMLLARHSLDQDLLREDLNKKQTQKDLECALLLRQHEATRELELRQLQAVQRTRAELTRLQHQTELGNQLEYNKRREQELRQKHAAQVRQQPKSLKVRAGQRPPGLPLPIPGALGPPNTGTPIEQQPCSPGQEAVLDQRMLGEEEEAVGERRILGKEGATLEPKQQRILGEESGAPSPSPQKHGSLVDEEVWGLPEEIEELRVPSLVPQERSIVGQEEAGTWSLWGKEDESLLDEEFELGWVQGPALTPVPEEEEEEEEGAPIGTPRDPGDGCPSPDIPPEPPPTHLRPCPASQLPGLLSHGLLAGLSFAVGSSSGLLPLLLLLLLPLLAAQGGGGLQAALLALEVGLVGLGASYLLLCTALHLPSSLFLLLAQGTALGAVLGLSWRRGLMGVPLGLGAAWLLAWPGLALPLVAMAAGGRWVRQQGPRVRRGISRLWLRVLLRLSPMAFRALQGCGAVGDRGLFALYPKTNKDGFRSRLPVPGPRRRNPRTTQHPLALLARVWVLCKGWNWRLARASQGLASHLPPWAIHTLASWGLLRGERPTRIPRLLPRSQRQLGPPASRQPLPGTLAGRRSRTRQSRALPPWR
Protocol: as §1, §2, §3, §4, §5, §6, §7, §8

[15] = target: T15, EPHA6 (Homo sapiens, UniProt Q9UF33); settings: EPHA6, 1 µM; read-out: Residual Activity (%)
T15 construct: purchased ProQinase
Protocol: as §1, §2, §3, §4, §5, §6, §7, §8

[16] = target: T16, EIF2AK3 (Homo sapiens, UniProt Q9NZJ5); settings: EIF2AK3, 1 µM; read-out: Residual Activity (%)
T16 construct: purchased ProQinase
Protocol: as §1, §2, §3, §4, §5, §6, §7, §8

[17] = target: T17, BUB1B (Homo sapiens, UniProt O60566); settings: read-out: Residual Activity (%)
T17 construct: purchased ProQinase
Protocol: as §1, §2, §3, §4, §5, §6, §7, §8

[18] = target: T18, YES (Homo sapiens, UniProt P07947); settings: read-out: Residual Activity (%)
T18 construct: purchased ProQinase
Protocol: as §1, §2, §3, §4, §5, §6, §7, §8

[19] = target: T19, PAK1 (Homo sapiens, UniProt Q13153); settings: PAK1, 1 µM; read-out: Residual Activity (%)
T19 construct: purchased ProQinase
Protocol: as §1, §2, §3, §4, §5, §6, §7, §8

[20] = target: T20, TRK-B (Homo sapiens, UniProt Q16620); settings: read-out: Residual Activity (%)
T20 construct: purchased ProQinase
Protocol: as §1, §2, §3, §4, §5, §6, §7, §8

[21] = target: T21, NEK6 (Homo sapiens, UniProt Q9HC98); settings: NEK6, 1 µM; read-out: Residual Activity (%)
T21 construct: purchased ProQinase
Protocol: as §1, §2, §3, §4, §5, §6, §7, §8

[22] = target: T22, NEK2 (Homo sapiens, UniProt P51955); settings: NEK2, 1 µM; read-out: Residual Activity (%)
T22 construct: purchased ProQinase
T22 sequence (P51955 whole entry): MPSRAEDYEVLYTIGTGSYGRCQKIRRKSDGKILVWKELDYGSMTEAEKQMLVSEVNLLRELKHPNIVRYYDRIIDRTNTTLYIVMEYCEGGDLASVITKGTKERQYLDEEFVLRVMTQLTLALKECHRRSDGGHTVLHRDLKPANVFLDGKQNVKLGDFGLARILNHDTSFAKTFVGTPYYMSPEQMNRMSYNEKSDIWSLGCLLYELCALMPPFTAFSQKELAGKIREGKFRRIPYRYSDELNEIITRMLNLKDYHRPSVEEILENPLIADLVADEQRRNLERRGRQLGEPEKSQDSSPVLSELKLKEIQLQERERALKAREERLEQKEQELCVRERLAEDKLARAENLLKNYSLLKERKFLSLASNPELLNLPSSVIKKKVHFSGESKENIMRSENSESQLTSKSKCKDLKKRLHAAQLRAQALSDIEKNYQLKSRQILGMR
Protocol: as §1, §2, §3, §4, §5, §6, §7, §8

[23] = target: T23, HRI (Homo sapiens, UniProt Q9BQI3); settings: read-out: Residual Activity (%)
T23 construct: purchased ProQinase
Protocol: as §1, §2, §3, §4, §5, §6, §7, §8

[24] = target: T24, EPHB3 (Homo sapiens, UniProt P54753); settings: EPHB3, 1 µM; read-out: Residual Activity (%)
T24 construct: purchased ProQinase
Protocol: as §1, §2, §3, §4, §5, §6, §7, §8

[25] = target: T25, MYLK (Homo sapiens, UniProt Q15746); settings: read-out: Residual Activity (%)
T25 construct: purchased ProQinase
Protocol: as §1, §2, §3, §4, §5, §6, §7, §8

[26] = target: T26, ROCK2 (Homo sapiens, UniProt O75116); settings: ROCK2, 1 µM; read-out: Residual Activity (%)
T26 construct: purchased ProQinase
Protocol: as §1, §2, §3, §4, §5, §6, §7, §8

[27] = target: T27, MKK4 (Homo sapiens, UniProt P45985); settings: MKK4, 1 µM; read-out: Residual Activity (%)
T27 construct: purchased ProQinase
Protocol: as §1, §2, §3, §4, §5, §6, §7, §8

[28] = target: T28, ACV-R1 (Homo sapiens, UniProt Q04771); settings: ACV-R1, 1 µM; read-out: Residual Activity (%)
T28 construct: purchased ProQinase
Protocol: as §1, §2, §3, §4, §5, §6, §7, §8

With `COc1ccc(-c2cc(C(=O)Nc3cc(-c4c(-c5ccc(F)cc5)noc4C(C)C)ccn3)n(CC3NCC(O)C3O)c2)cc1` (stereo not shown) [29d] the remaining activity at 1 µM [1] was 96%, the remaining activity at 1 µM [2] was 95% and the remaining activity at 1 µM [3] was 93%. The remaining activity at 1 µM [4] was 94%, the remaining activity at 1 µM [5] was 118% and the remaining activity at 1 µM [6] was 122%. For the same compound, the remaining activity at 1 µM [7] was 104%, the remaining activity at 1 µM [8] was 89% and the remaining activity at 1 µM [9] was 99%. It also gave a remaining activity at 1 µM [10] of 113%, a remaining activity at 1 µM [11] of 98% and a remaining activity at 1 µM [12] of 91%. It also gave a remaining activity at 1 µM [13] of 90%, a remaining activity at 1 µM [14] of 105% and a remaining activity at 1 µM [15] of 108%. The remaining activity at 1 µM [16] was 104%, the remaining activity at 1 µM [17] was 90% and the remaining activity at 1 µM [18] was 126%. It also gave a remaining activity at 1 µM [19] of 88%, a remaining activity at 1 µM [20] of 120% and a remaining activity at 1 µM [21] of 94%. The remaining activity at 1 µM [22] was 89%, the remaining activity at 1 µM [23] was 93% and the remaining activity at 1 µM [24] was 138%. It also gave a remaining activity at 1 µM [25] of 106%, a remaining activity at 1 µM [26] of 92% and a remaining activity at 1 µM [27] of 109%. The remaining activity at 1 µM [28] was 105%.
